Measured values from PubChem BioAssay (NCI).
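Test compounds were applied to cells in 96-well plates for 48 hours at 5 doses. TGI denotes the concentration required for complete inhibition of growth.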

Key:
Experiment in all cases: DTP human tumour cell line panel, 48 h
786-0 renal = system: 786-0 renal
A498 renal = system: A498 renal
A549 NSCLC = system: A549 NSCLC
ACHN renal = system: ACHN renal
BT-549 breast = system: BT-549 breast
CAKI-1 renal = system: CAKI-1 renal
CCRF-CEM leukemia = system: CCRF-CEM leukemia
COLO 205 colon = system: COLO 205 colon
DU-145 prostate = system: DU-145 prostate
EKVX NSCLC = system: EKVX NSCLC
HCC-2998 colon = system: HCC-2998 colon
HCT-116 colon = system: HCT-116 colon
HCT-15 colon = system: HCT-15 colon
HL-60(TB) leukemia = system: HL-60(TB) leukemia
HOP-62 NSCLC = system: HOP-62 NSCLC
HOP-92 NSCLC = system: HOP-92 NSCLC
HS 578T breast = system: HS 578T breast
HT29 colon = system: HT29 colon
IGROV1 ovarian = system: IGROV1 ovarian
K-562 leukemia = system: K-562 leukemia
LOX IMVI melanoma = system: LOX IMVI melanoma
M14 melanoma = system: M14 melanoma
MALME-3M melanoma = system: MALME-3M melanoma
MCF7 breast = system: MCF7 breast
MDA-MB-231 breast = system: MDA-MB-231 breast
MDA-MB-435 = system: MDA-MB-435
MDA-N = system: MDA-N
MOLT-4 leukemia = system: MOLT-4 leukemia
NCI-H226 lung = system: NCI-H226 lung
NCI-H23 lung = system: NCI-H23 lung
NCI-H460 lung = system: NCI-H460 lung
NCI-H522 lung = system: NCI-H522 lung
NCI/ADR-RES ovarian = system: NCI/ADR-RES ovarian
OVCAR-3 ovarian = system: OVCAR-3 ovarian
OVCAR-4 ovarian = system: OVCAR-4 ovarian
OVCAR-5 ovarian = system: OVCAR-5 ovarian
OVCAR-8 ovarian = system: OVCAR-8 ovarian
PC-3 prostate = system: PC-3 prostate
RPMI-8226 leukemia = system: RPMI-8226 leukemia
RXF 393 renal = system: RXF 393 renal
SF-268 CNS = system: SF-268 CNS
SF-295 CNS = system: SF-295 CNS
SF-539 CNS = system: SF-539 CNS
SK-MEL-2 melanoma = system: SK-MEL-2 melanoma
SK-MEL-28 melanoma = system: SK-MEL-28 melanoma
SK-MEL-5 melanoma = system: SK-MEL-5 melanoma
SN12C renal = system: SN12C renal
SNB-19 CNS = system: SNB-19 CNS
SNB-75 CNS = system: SNB-75 CNS
SR leukemia = system: SR leukemia
SW-620 colon = system: SW-620 colon
T-47D breast = system: T-47D breast
TK-10 renal = system: TK-10 renal
U251 CNS = system: U251 CNS
UACC-257 melanoma = system: UACC-257 melanoma
UACC-62 melanoma = system: UACC-62 melanoma
KM12 colon = system: KM12 colon
SK-OV-3 ovarian = system: SK-OV-3 ovarian
UO-31 renal = system: UO-31 renal

## O=c1oc2ccc(Cl)cc2c2ccccc12
786-0 renal
  TGI: > 100 µM
A498 renal
  TGI: > 100 µM
A549 NSCLC
  TGI: > 100 µM
ACHN renal
  TGI: > 100 µM
BT-549 breast
  TGI: 37 µM
CAKI-1 renal
  TGI: > 100 µM
CCRF-CEM leukemia
  TGI: > 100 µM
COLO 205 colon
  TGI: > 100 µM
DU-145 prostate
  TGI: > 100 µM
EKVX NSCLC
  TGI: > 100 µM
HCC-2998 colon
  TGI: > 100 µM
HCT-116 colon
  TGI: > 100 µM
HCT-15 colon
  TGI: > 100 µM
HL-60(TB) leukemia
  TGI: > 100 µM
HOP-62 NSCLC
  TGI: 45.1 µM
HOP-92 NSCLC
  TGI: 93.5 µM
HS 578T breast
  TGI: 77.2 µM
HT29 colon
  TGI: > 100 µM
IGROV1 ovarian
  TGI: > 100 µM
K-562 leukemia
  TGI: > 100 µM
LOX IMVI melanoma
  TGI: > 100 µM
M14 melanoma
  TGI: > 100 µM
MALME-3M melanoma
  TGI: > 100 µM
MCF7 breast
  TGI: > 100 µM
MDA-MB-231 breast
  TGI: 41.2 µM
MDA-MB-435
  TGI: > 100 µM
MDA-N
  TGI: > 100 µM
MOLT-4 leukemia
  TGI: > 100 µM
NCI-H226 lung
  TGI: > 100 µM
NCI-H23 lung
  TGI: 58.2 µM
NCI-H460 lung
  TGI: > 100 µM
NCI-H522 lung
  TGI: > 100 µM
NCI/ADR-RES ovarian
  TGI: > 100 µM
OVCAR-3 ovarian
  TGI: > 100 µM
OVCAR-4 ovarian
  TGI: > 100 µM
OVCAR-5 ovarian
  TGI: > 100 µM
OVCAR-8 ovarian
  TGI: > 100 µM
PC-3 prostate
  TGI: > 100 µM
RPMI-8226 leukemia
  TGI: > 100 µM
RXF 393 renal
  TGI: 58.9 µM
SF-268 CNS
  TGI: 50.5 µM
SF-295 CNS
  TGI: > 100 µM
SF-539 CNS
  TGI: > 100 µM
SK-MEL-2 melanoma
  TGI: 50.9 µM
SK-MEL-28 melanoma
  TGI: > 100 µM
SK-MEL-5 melanoma
  TGI: > 100 µM
SN12C renal
  TGI: > 100 µM
SNB-19 CNS
  TGI: 45.1 µM
SNB-75 CNS
  TGI: 97.4 µM
SR leukemia
  TGI: > 100 µM
SW-620 colon
  TGI: > 100 µM
T-47D breast
  TGI: > 100 µM
TK-10 renal
  TGI: > 100 µM
U251 CNS
  TGI: 33.7 µM
UACC-257 melanoma
  TGI: > 100 µM
UACC-62 melanoma
  TGI: > 100 µM

## O=[N+]([O-])/C(C(Cl)=C(Cl)Cl)=C(/Br)SCc1ccccc1
786-0 renal
  TGI: 4.64 µM
A498 renal
  TGI: 15.2 µM
A549 NSCLC
  TGI: 15.2 µM
ACHN renal
  TGI: 6.85 µM
BT-549 breast
  TGI: 4.22 µM
CAKI-1 renal
  TGI: 3.65 µM
CCRF-CEM leukemia
  TGI: 0.633 µM
COLO 205 colon
  TGI: 3.43 µM
DU-145 prostate
  TGI: 25.7 µM
EKVX NSCLC
  TGI: 12.5 µM
HCC-2998 colon
  TGI: 21.1 µM
HCT-116 colon
  TGI: 4.13 µM
HCT-15 colon
  TGI: 4.98 µM
HL-60(TB) leukemia
  TGI: 0.905 µM
HOP-62 NSCLC
  TGI: 41.7 µM
HOP-92 NSCLC
  TGI: 5.28 µM
HS 578T breast
  TGI: 47.7 µM
HT29 colon
  TGI: 4.92 µM
IGROV1 ovarian
  TGI: 13.3 µM
K-562 leukemia
  TGI: 2.04 µM
KM12 colon
  TGI: 28.5 µM
LOX IMVI melanoma
  TGI: 4.24 µM
M14 melanoma
  TGI: 5.79 µM
MALME-3M melanoma
  TGI: 11.9 µM
MCF7 breast
  TGI: 9.11 µM
MDA-MB-231 breast
  TGI: 6.06 µM
MDA-MB-435
  TGI: 2.94 µM
MDA-N
  TGI: 4.04 µM
MOLT-4 leukemia
  TGI: 1.03 µM
NCI-H226 lung
  TGI: 14.9 µM
NCI-H23 lung
  TGI: 12 µM
NCI-H460 lung
  TGI: 24.1 µM
NCI-H522 lung
  TGI: 4.49 µM
NCI/ADR-RES ovarian
  TGI: 15.3 µM
OVCAR-3 ovarian
  TGI: 5.02 µM
OVCAR-4 ovarian
  TGI: 8.19 µM
OVCAR-5 ovarian
  TGI: 18.5 µM
PC-3 prostate
  TGI: 7.21 µM
RPMI-8226 leukemia
  TGI: 3.39 µM
RXF 393 renal
  TGI: 4.01 µM
SF-268 CNS
  TGI: 7.2 µM
SF-295 CNS
  TGI: 31.5 µM
SF-539 CNS
  TGI: 21.4 µM
SK-MEL-2 melanoma
  TGI: 13.8 µM
SK-MEL-28 melanoma
  TGI: 4.09 µM
SK-MEL-5 melanoma
  TGI: 16.4 µM
SK-OV-3 ovarian
  TGI: 36.4 µM
SN12C renal
  TGI: 5.8 µM
SNB-19 CNS
  TGI: 27.7 µM
SNB-75 CNS
  TGI: 9.02 µM
SR leukemia
  TGI: 4.2 µM
SW-620 colon
  TGI: 4.16 µM
T-47D breast
  TGI: 13.5 µM
TK-10 renal
  TGI: 9.61 µM
U251 CNS
  TGI: 14.5 µM
UACC-257 melanoma
  TGI: 11.3 µM
UACC-62 melanoma
  TGI: 16.1 µM
UO-31 renal
  TGI: 5.72 µM
